Data reported in ChEMBL document CHEMBL1201862, “PubChem BioAssay data set” (2004).
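Step 1: Grow cells in 96-well plates. Step 2: Expose to compound for 48 hours at 5 concentrations. Step 3: Interpolate endpoints linearly; if unreached, use highest concentration. The concentration for 50% growth inhibition is given as GI50.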 Calls of active or inactive are those of the source. No stated cut-off is given here; in the data, active = GI50 up to about 1.1 µM and inactive = higher.

Legend:
Test in all cases: NCI-60 cell line screen, 48 h
SK-MEL-2 = test system: SK-MEL-2
NCI-H23 = test system: NCI-H23
SF-295 = test system: SF-295
SF-539 = test system: SF-539
MCF7 = test system: MCF7
TK-10 = test system: TK-10
UACC-62 = test system: UACC-62
786-0 = test system: 786-0
ACHN = test system: ACHN
K562 = test system: K562
NCI/ADR-RES = test system: NCI/ADR-RES
UACC-257 = test system: UACC-257
SNB-19 = test system: SNB-19
RPMI-8226 = test system: RPMI-8226
SK-MEL-28 = test system: SK-MEL-28
LOX IMVI = test system: LOX IMVI
IGROV-1 = test system: IGROV-1
HCT-116 = test system: HCT-116
OVCAR-3 = test system: OVCAR-3
SN12C = test system: SN12C

Row | SMILES | GI50 (SK-MEL-2) | GI50 (NCI-H23) | GI50 (SF-295) | GI50 (SF-539) | GI50 (MCF7) | GI50 (TK-10) | GI50 (UACC-62) | GI50 (786-0) | GI50 (ACHN) | GI50 (K562) | GI50 (NCI/ADR-RES) | GI50 (UACC-257) | GI50 (SNB-19) | GI50 (RPMI-8226) | GI50 (SK-MEL-28) | GI50 (LOX IMVI) | GI50 (IGROV-1) | GI50 (HCT-116) | GI50 (OVCAR-3) | GI50 (SN12C)
1 | N#Cc1c(O)nc2nn3c4ccc5ccccc5c4nnc3c2c1-c1ccc(Cl)cc1 | 1.9 µM (inactive) | 1.97 µM (inactive) | 1.84 µM (inactive) | 1.96 µM (inactive) | 1.75 µM (inactive) | 5.89 µM (inactive) | 1.49 µM (inactive) | 2.59 µM (inactive) | 2.49 µM (inactive) | 4.16 µM (inactive) | 4.55 µM (inactive) | 3.58 µM (inactive) | 3.13 µM (inactive) | 2.9 µM (inactive) | 2.24 µM (inactive) | 1.83 µM (inactive) | 1.2 µM (inactive) | 2.4 µM (inactive) | 1.69 µM (inactive) | 3.34 µM (inactive)
2 | Nc1n[n+](CC(=O)c2ccccc2)c2sc(-c3ccccc3)nn12 | > 100 µM (inactive) | > 100 µM (inactive) | 64.7 µM (inactive) | 74.8 µM (inactive) | 51.4 µM (inactive) | > 100 µM (inactive) | 13.9 µM (inactive) | > 100 µM (inactive) | > 100 µM (inactive) | 82.4 µM (inactive) | > 100 µM (inactive) | > 100 µM (inactive) | > 100 µM (inactive) | 60 µM (inactive) | > 100 µM (inactive) | 54 µM (inactive) | > 100 µM (inactive) | 44.2 µM (inactive) | > 100 µM (inactive) | > 100 µM (inactive)
3 | O=C(O)c1c2c(cc3c1CC(Cc1ccccc1)C3=O)CCC2 (stereo not given) | > 100 µM (inactive) | > 100 µM (inactive) | > 100 µM (inactive) | 76.6 µM (inactive) | > 100 µM (inactive) | > 100 µM (inactive) | > 100 µM (inactive) | > 100 µM (inactive) | 63 µM (inactive) | 75.2 µM (inactive) | > 100 µM (inactive) | > 100 µM (inactive) | > 100 µM (inactive) | 39.7 µM (inactive) | > 100 µM (inactive) | 26 µM (inactive) | > 100 µM (inactive) | 89.9 µM (inactive) | > 100 µM (inactive) | > 100 µM (inactive)
4 | CNc1ncnc2c1nnn2C | > 100 µM (inactive) | > 100 µM (inactive) | > 100 µM (inactive) | > 100 µM (inactive) | > 100 µM (inactive) | > 100 µM (inactive) | > 100 µM (inactive) | > 100 µM (inactive) | > 100 µM (inactive) | > 100 µM (inactive) | > 100 µM (inactive) | > 100 µM (inactive) | > 100 µM (inactive) | > 100 µM (inactive) | > 100 µM (inactive) | > 100 µM (inactive) | > 100 µM (inactive) | > 100 µM (inactive) | > 100 µM (inactive) | > 100 µM (inactive)
5 | CN(C)CCCN1c2ccccc2C(C)(C)c2ccccc21 [DIMETACRINE] | 16.5 µM (inactive) | 16.3 µM (inactive) | 17.4 µM (inactive) | 15.2 µM (inactive) | 14.8 µM (inactive) | 14.2 µM (inactive) | 13.1 µM (inactive) | 14.4 µM (inactive) | 15.3 µM (inactive) | 13.3 µM (inactive) | 17.1 µM (inactive) | 11.7 µM (inactive) | 15.5 µM (inactive) | 13.1 µM (inactive) | 15.4 µM (inactive) | 15.1 µM (inactive) | 17.9 µM (inactive) | 14.8 µM (inactive) | 14 µM (inactive) | 14.4 µM (inactive)
6 | CCCC(=O)Nc1cn(COC)c(C(=O)N2C[C@H]3C[C@@]34C2=CC(=O)c2[nH]cc(C)c24)n1 | 14 µM (inactive) | 2.02 µM (inactive) | 7.94 µM (inactive) | 4.98 µM (inactive) | 1.32 µM (inactive) | 10.1 µM (inactive) | 5.92 µM (inactive) | 2.79 µM (inactive) | 2.42 µM (inactive) | 5.31 µM (inactive) | 6.21 µM (inactive) | 8.71 µM (inactive) | 18.1 µM (inactive) | 6.04 µM (inactive) | 12 µM (inactive) | 7.14 µM (inactive) | 9.93 µM (inactive) | 4.68 µM (inactive) | 10.4 µM (inactive) | 11.5 µM (inactive)
7 | NC(=O)NC(=O)c1ccc(NC(=O)CBr)cc1 | 1.99 µM (inactive) | 2.06 µM (inactive) | 13.6 µM (inactive) | 2.18 µM (inactive) | 1.76 µM (inactive) | 1.31 µM (inactive) | 1.86 µM (inactive) | 0.278 µM (active) | 1.44 µM (inactive) | 0.705 µM (active) | 2.56 µM (inactive) | 1.94 µM (inactive) | 21.9 µM (inactive) | 1.1 µM (active) | 3.2 µM (inactive) | 0.558 µM (active) | 2.03 µM (inactive) | 0.83 µM (active) | 0.843 µM (active) | 0.561 µM (active)
